Source: PubChem BioAssay AID248 (DTP/NCI, 2004)
“And” between values parts separate entries of the source, which are not always exact repeats. Equal values may be shown once. Toxic doses and inconclusive results are not listed. Cut-off read from the data, not from the text of the source: active = T/C of 150% or more; inactive = T/C below 125%.

Tested on: L1210 leukemia ip in BDF1 mice, survival T/C
Test: NCI In Vivo Anticancer Drug Screen. Data for tumor model L1210 Leukemia (intraperitoneal) in B6D2F1 (BDF1) mice
Settings: endpoint: mean survival time, higher = longer survival
In short: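 Tumor was transplanted into mice, which were then dosed with test compound or vehicle alone. Survival was recorded for each group, and the treated figure was expressed relative to the control figure.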

[1] = dose: 100.0 mg/kg/injection, schedule: Q01DX009 (ip), vehicle: saline with Tween-80
[2] = dose: 200.0 mg/kg/injection, schedule: Q01DX009 (ip), vehicle: saline with Tween-80
[3] = dose: 400.0 mg/kg/injection, schedule: Q01DX009 (ip), vehicle: saline with Tween-80
[4] = dose: 100.0 mg/kg/injection, schedule: Q01DX001 (ip), vehicle: saline
[5] = dose: 200.0 mg/kg/injection, schedule: Q01DX001 (ip), vehicle: saline
[6] = dose: 400.0 mg/kg/injection, schedule: Q01DX001 (ip), vehicle: saline
[7] = dose: 100.0 mg/kg/injection, schedule: Q01DX001 (ip), vehicle: saline with Tween-80
[8] = dose: 200.0 mg/kg/injection, schedule: Q01DX001 (ip), vehicle: saline with Tween-80
[9] = dose: 400.0 mg/kg/injection, schedule: Q01DX001 (ip), vehicle: saline with Tween-80
[10] = dose: 100.0 mg/kg/injection, schedule: Q04DX003 (ip), vehicle: saline with Tween-80
[11] = dose: 100.0 mg/kg/injection, schedule: Q01DX009 (ip), vehicle: Klucel (hydroxypropylcellulose) (HPC)
[12] = dose: 200.0 mg/kg/injection, schedule: Q01DX009 (ip), vehicle: Klucel (hydroxypropylcellulose) (HPC)
[13] = dose: 400.0 mg/kg/injection, schedule: Q01DX009 (ip), vehicle: Klucel (hydroxypropylcellulose) (HPC)
[14] = dose: 100.0 mg/kg/injection, schedule: Q04DX003 (ip), vehicle: Klucel (hydroxypropylcellulose) (HPC)
[15] = dose: 200.0 mg/kg/injection, schedule: Q04DX003 (ip), vehicle: saline with Tween-80
[16] = dose: 400.0 mg/kg/injection, schedule: Q04DX003 (ip), vehicle: saline with Tween-80

Measured: T/C

O=C(NO)N/N=C/c1ccc(/C=N/NC(=O)NO)cc1
inactive: dose: 100.0 mg/kg/injection, schedule: Q01DX001 (ip), vehicle: other 100 % of control | [1] 101 % of control | dose: 100.0 mg/kg/injection, schedule: Q04DX003 (ip), vehicle: other 104 % of control | dose: 200.0 mg/kg/injection, schedule: Q01DX001 (ip), vehicle: other 100 % of control | [2] 95 % of control | dose: 200.0 mg/kg/injection, schedule: Q04DX003 (ip), vehicle: other 95 % of control | dose: 400.0 mg/kg/injection, schedule: Q01DX001 (ip), vehicle: other 102 % of control | [3] 101 % of control | dose: 400.0 mg/kg/injection, schedule: Q04DX003 (ip), vehicle: other 96 % of control

CCC(C(C)=O)C(C)=O.CCC(C(C)=O)C(C)=O.[Cu]
inactive: dose: 6.0 mg/kg/injection, schedule: Q01DX001 (ip), vehicle: saline 95 % of control | dose: 12.0 mg/kg/injection, schedule: Q01DX001 (ip), vehicle: saline 101 % of control | dose: 25.0 mg/kg/injection, schedule: Q01DX001 (ip), vehicle: saline 112 % of control

COc1cccc(C(N)C(=O)O)c1 (centres undefined)
inactive: dose: 50.0 mg/kg/injection, schedule: Q01DX001 (ip), vehicle: saline 94 % of control | [4] 100 % of control | [5] 105 % of control | [6] 97 % of control

CC(C)(C(=O)O)c1ccccc1
inactive: [7] 96 % of control | [8] 96 % of control | [9] 96 % of control

CSCC1OC(n2cnc3c(N)nc(Cl)nc32)C(O)C1O (centres undefined)
inactive: dose: 3.12 mg/kg/injection, schedule: Q01DX009 (ip), vehicle: saline with Tween-80 97 % of control | dose: 6.25 mg/kg/injection, schedule: Q01DX009 (ip), vehicle: saline with Tween-80 102 % of control | dose: 12.5 mg/kg/injection, schedule: Q01DX009 (ip), vehicle: saline with Tween-80 107 % of control | dose: 25.0 mg/kg/injection, schedule: Q01DX009 (ip), vehicle: saline with Tween-80 91 % of control | dose: 25.0 mg/kg/injection, schedule: Q04DX003 (ip), vehicle: saline with Tween-80 97 % of control | dose: 50.0 mg/kg/injection, schedule: Q04DX003 (ip), vehicle: saline with Tween-80 101 % of control | [7] 95 % of control | [10] 108 % of control

Cc1ccc(S(=O)(=O)OCCN(CCOS(=O)(=O)c2ccc(C)cc2)c2cc(OCc3ccccc3)cc(OCc3ccccc3)c2)cc1
inactive: dose: 25.0 mg/kg/injection, schedule: Q01DX009 (ip), vehicle: water 100 % of control | dose: 50.0 mg/kg/injection, schedule: Q01DX009 (ip), vehicle: water 121 % of control | dose: 100.0 mg/kg/injection, schedule: Q01DX009 (ip), vehicle: water 89 % of control | dose: 400.0 mg/kg/injection, schedule: Q01DX009 (ip), vehicle: water 95 % of control

COC1OCC(Cl)C(Cl)C1O (centres undefined)
inactive: dose: 50.0 mg/kg/injection, schedule: Q04DX002 (ip), vehicle: saline 110 % of control | dose: 100.0 mg/kg/injection, schedule: Q04DX002 (ip), vehicle: saline 100 % of control | dose: 200.0 mg/kg/injection, schedule: Q04DX002 (ip), vehicle: saline 100 % of control

Cc1ccc(C(c2ccc(C)cc2)C(Cl)Cl)cc1
inactive: [1] 96 % of control | [2] 109 % of control | [3] 107 % of control

COc1ccc(Cl)cc1NC(=O)Nc1ccc(Cl)cc1[N+](=O)[O-]
inactive: [11] 100 % of control | [12] 94 % of control | [13] 97 % of control

COc1cc([N+](=O)[O-])ccc1NC(=O)Oc1ccc2ccccc2c1
inactive: [11] 98 % of control | [12] 96 % of control | [13] 100 % of control

O=C(O)C1C(C(=O)Nc2cc(C(F)(F)F)ccc2Cl)C2(Cl)C(Cl)=C(Cl)C1(Cl)C2(Cl)Cl (centres undefined)
inactive: dose: 25.0 mg/kg/injection, schedule: Q01DX009 (ip), vehicle: Klucel (hydroxypropylcellulose) (HPC) 97 % of control | dose: 50.0 mg/kg/injection, schedule: Q01DX009 (ip), vehicle: Klucel (hydroxypropylcellulose) (HPC) 95 % of control | dose: 50.0 mg/kg/injection, schedule: Q04DX003 (ip), vehicle: Klucel (hydroxypropylcellulose) (HPC) 95 % of control | [14] 93 % of control and 91 % of control

CC(=O)CC(=O)NCCCc1ccccc1
inactive: dose: 100.0 mg/kg/injection, schedule: Q01DX009 (sc), vehicle: olive oil, sesame oil, peanut oil 101 % of control | [10] 97 % of control | dose: 200.0 mg/kg/injection, schedule: Q01DX009 (sc), vehicle: olive oil, sesame oil, peanut oil 103 % of control | [15] 103 % of control | dose: 400.0 mg/kg/injection, schedule: Q01DX009 (sc), vehicle: olive oil, sesame oil, peanut oil 106 % of control | [16] 97 % of control

CC1CCCCN1C(=O)Nc1ccccc1C(F)(F)F (centres undefined)
inactive: [7] 96 % of control and 97 % of control | [1] 100 % of control and 119 % of control | dose: 100.0 mg/kg/injection, schedule: Q04DX002 (ip), vehicle: saline with Tween-80 96 % of control and 86 % of control | [10] 99 % of control and 91 % of control | [8] 97 % of control and 100 % of control | [2] 106 % of control and 107 % of control | dose: 200.0 mg/kg/injection, schedule: Q04DX002 (ip), vehicle: saline with Tween-80 96 % of control and 99 % of control | [15] 95 % of control and 101 % of control | [9] 100 % of control and 90 % of control | [3] 93 % of control and 116 % of control | dose: 400.0 mg/kg/injection, schedule: Q04DX002 (ip), vehicle: saline with Tween-80 95 % of control and 100 % of control | [16] 91 % of control

Cc1nc([Se]c2nc(C)n3ccncc23)c2cnccn12
inactive: [10] 98 % of control | [15] 95 % of control | [16] 93 % of control

NC12CC3CC(C1)CC(F)(C3)C2
inactive: dose: 50.0 mg/kg/injection, schedule: Q01DX009 (ip), vehicle: saline 101 % of control | dose: 100.0 mg/kg/injection, schedule: Q01DX009 (ip), vehicle: saline 99 % of control | dose: 200.0 mg/kg/injection, schedule: Q01DX009 (ip), vehicle: saline 101 % of control | dose: 400.0 mg/kg/injection, schedule: Q01DX009 (ip), vehicle: saline 93 % of control

CC(=O)c1ccccc1I
inactive: [11] 94 % of control | [14] 100 % of control | [12] 97 % of control | dose: 200.0 mg/kg/injection, schedule: Q04DX003 (ip), vehicle: Klucel (hydroxypropylcellulose) (HPC) 94 % of control | [13] 103 % of control | dose: 400.0 mg/kg/injection, schedule: Q04DX003 (ip), vehicle: Klucel (hydroxypropylcellulose) (HPC) 95 % of control

CC(OC(=O)CCN1CC1)C1CC1 (centres undefined)
inactive: dose: 2.5 mg/kg/injection, schedule: Q01DX009 (ip), vehicle: Klucel (hydroxypropylcellulose) (HPC) 103 % of control | dose: 5.0 mg/kg/injection, schedule: Q01DX009 (ip), vehicle: Klucel (hydroxypropylcellulose) (HPC) 102 % of control | dose: 10.0 mg/kg/injection, schedule: Q01DX009 (ip), vehicle: Klucel (hydroxypropylcellulose) (HPC) 100 % of control | dose: 20.0 mg/kg/injection, schedule: Q01DX009 (ip), vehicle: Klucel (hydroxypropylcellulose) (HPC) 101 % of control | dose: 20.0 mg/kg/injection, schedule: Q04DX003 (ip), vehicle: Klucel (hydroxypropylcellulose) (HPC) 103 % of control | dose: 40.0 mg/kg/injection, schedule: Q04DX003 (ip), vehicle: Klucel (hydroxypropylcellulose) (HPC) 93 % of control | dose: 80.0 mg/kg/injection, schedule: Q04DX003 (ip), vehicle: Klucel (hydroxypropylcellulose) (HPC) 101 % of control | [14] 87 % of control

O=C(OC/C=C/CC(Cl)(Cl)Cl)C(Cl)(Cl)Cl
inactive: [4] 104 % of control | dose: 100.0 mg/kg/injection, schedule: Q01DX009 (ip), vehicle: acetone 93 % of control | dose: 100.0 mg/kg/injection, schedule: Q04DX003 (ip), vehicle: acetone 109 % of control | [5] 112 % of control | dose: 200.0 mg/kg/injection, schedule: Q01DX009 (ip), vehicle: acetone 90 % of control | dose: 200.0 mg/kg/injection, schedule: Q04DX003 (ip), vehicle: acetone 103 % of control | [6] 102 % of control | dose: 400.0 mg/kg/injection, schedule: Q04DX003 (ip), vehicle: acetone 93 % of control
